Test [1] concerns STING activation (IFN-β production in THP-1 cells). The test is described as follows: Human IFN-β production inhibition test by cGAMP stimulation in THP-1 cells. Type of test: cell-based. Further details: IFN-β bioinhibitory activity: scale not given here. The settings on record: 2'3'-cGAMP transfection, 18 hours, IFN-β ELISA; for IC50: Homo sapiens, read-out: IFN-β bioinhibitory activity. A digest of the protocol:
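PMA-primed (100 nM, overnight) THP-1 cells pretreated 1 h with compound at 0.001 to 1 μM (0.1% DMSO), then transfected with 0.12 μg/well 2′3′-cGAMP and cultured 18 hours. Supernatant IFN-β measured by ELISA; IC50 by regression against log concentration, normalised to cGAMP-only (100%) and unstimulated (0%) controls.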

A further test has as its target T1, human STING (hSTING) (Homo sapiens, UniProt Q86WV6).
T1 construct: host or cells: HEK-Blue ISG cells (HEK293-derived SEAP reporter line)
The test is described as follows: Inhibition test of intracellular human STING (hSTING) pathway using SEAP reporter cells (HEK-Blue ISG), stimulation with Compound 3. Type of test: cell-based. Further details: hSTING inhibitory activity: scale not given here. The settings on record: Compound 3 10 nM stimulation, 21 hours. A digest of the protocol: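 IC50 derived by regressing inhibition rate against log compound concentration (0.1 to 10 μM final, added 1 h before agonist), with 0% and 100% set by wells without and with 10 nM Compound 3. SEAP colour reaction read after 21 h stimulation of HEK-Blue ISG reporter cells.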

Structures can show the parent of a compound that is named as a salt.

T1 sequence (Q86WV6 whole entry H232R): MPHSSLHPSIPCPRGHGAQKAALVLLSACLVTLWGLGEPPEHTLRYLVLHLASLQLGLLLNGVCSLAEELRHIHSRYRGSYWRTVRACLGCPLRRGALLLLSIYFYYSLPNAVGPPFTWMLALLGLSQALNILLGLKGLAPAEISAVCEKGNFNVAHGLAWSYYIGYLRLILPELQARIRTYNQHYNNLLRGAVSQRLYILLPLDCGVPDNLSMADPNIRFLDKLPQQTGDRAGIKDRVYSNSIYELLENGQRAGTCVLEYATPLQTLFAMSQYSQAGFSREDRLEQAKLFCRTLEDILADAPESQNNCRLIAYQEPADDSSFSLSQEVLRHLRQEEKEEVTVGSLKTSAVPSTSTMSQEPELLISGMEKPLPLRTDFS

Regarding `CC#CCn1c(Nc2c[nH]c3ccc(Cl)cc23)nc2cc(C(F)(F)F)ccc21` [Embodiment 228, 1-(But-2-yn-1-yl)-N-(5-rolo-1H-indol-3-yl)-5-(trifluoromethyl)-1H-benzo[d]imidazol-2-amine], in test [1], the IFN-β bioinhibitory activity result is reported as “* *”. The hSTING inhibitory activity entry at human STING (hSTING) is reported as “* *”.

In the case of `COc1ccc2[nH]cc(Nc3nc4cc(Oc5ccccc5)ccc4[nH]3)c2n1` [Embodiment 36, N-(5-methoxy-1H-pyrrolo[3,2-b]pyridin-3-yl)-5-phenoxy-1H-benzo[d]imidazol-2-amine], the IFN-β bioinhibitory activity result in test [1] was “* *”. Further, on human STING (hSTING), the hSTING inhibitory activity entry was “* *”.

On to `Clc1ccc2[nH]cc(Nc3nc4ccc(Oc5ccccc5)cc4n3C3CC3)c2n1` [Embodiment 119, N-(5-Chloro-1H-pyrrolo[3,2-b]pyridin-3-yl)-1-cyclopropyl-6-phenoxy-1H-benzo[d]imidazol-2-amine], for which the IC50 in test [1] is 100 to 1000 nM. Moreover, the hSTING inhibitory activity result at human STING (hSTING) was “* * *”.

Turning to `Cn1c(Nc2c[nH]c3ccc(Cl)cc23)nc2cc(OC(F)(F)F)ccc21` [Embodiment 246, N-(5-Chloro-1H-indol-3-yl)-1-methyl-5-(trifluoromethoxy)-1H-benzo[d]imidazol-2-amine], the IFN-β bioinhibitory activity result in test [1] was “* * *”. For the same compound, the hSTING inhibitory activity entry on human STING (hSTING) is “* * *”.

As for `Cn1c(Nc2c[nH]c3cc(F)c(Cl)cc23)nc2cc(C(F)(F)F)ccc21` [Embodiment 262, N-(5-Chloro-6-fluoro-1H-indol-3-yl)-1-methyl-5-(trifluoromethyl)-1 H-benzo[d]imidazol-2-amine], the IFN-β bioinhibitory activity result in test [1] is “* *”. Besides, the hSTING inhibitory activity result at human STING (hSTING) is reported as “* * *”.

Consider `Clc1ccc2[nH]cc(Nc3nc4cc(C5CCOCC5)ccc4[nH]3)c2n1` [Embodiment 112, N-(5-chloro-1H-pyrrolo[3,2-b]pyridin-3-yl)-5-(tetrahydro-2H-pyran-4-yl)-1H-benzo[d]imidazole-2-amine], for which, in test [1], the IC50 lay in the range of 100 to 1000 nM. Moreover, the hSTING inhibitory activity entry at human STING (hSTING) is “* *”.

Consider `CN(C)n1c(Nc2c[nH]c3ccc(Cl)cc23)nc2cc(Cl)ccc21` [Embodiment 265, 5-Chloro-N2-(5-chloro-1H-indol-3-yl)-N1,N1-dimethyl-1H-benzo [d]imidazole-1,2-diamine], for which the IFN-β bioinhibitory activity result in test [1] was “* *”. Moreover, on human STING (hSTING), the hSTING inhibitory activity entry was “* * *”.

Turning to `CC(C)c1ccc2[nH]c(Nc3c[nH]c4ccc(Cl)nc34)nc2c1` [Embodiment 104, N-(5-Chloro-1H-pyrrolo[3,2-b]pyridin-3-yl)-5-isopropyl-1H-benzo[d]imidazol-2-amine], in test [1], the IFN-β bioinhibitory activity result is on record as “* *”. Moreover, the hSTING inhibitory activity entry on human STING (hSTING) is reported as “* *”.

With `CCCn1c(Nc2c[nH]c3ccc(Cl)cc23)nc2cc(OC(F)(F)F)ccc21` [Embodiment 244, N-(5-Chloro-1H-indol-3-yl)-1-propyl-5-(trifluoromethoxy)-1H-benzo [d]imidazol-2-amine], the IFN-β bioinhibitory activity entry in test [1] is reported as “* *”. The hSTING inhibitory activity result at human STING (hSTING) is reported as “* * *”.

For the compound `Clc1ccnc2c(Nc3nc4cc(Oc5ccccc5)ccc4[nH]3)c[nH]c12` [Embodiment 38, N-(7-chloro-1H-pyrrolo[3,2-b]pyridin-3-yl)-5-phenoxy-1H-benzo[d]imidazol-2-amine], in test [1], the IC50 is at least 1000 nM. Also, the hSTING inhibitory activity entry on human STING (hSTING) is recorded as “* *”.

In the case of `Cc1cc(C(F)(F)F)cc2nc(Nc3c[nH]c4ccc(Cl)cc34)n(C)c12` [Embodiment 248, N-(5-Chloro-1H-indol-3-yl)-1,7-dimethyl-5-(trifluoromethyl)-1H-benzo[d]imidazol-2-amine], the IFN-β bioinhibitory activity result in test [1] was “* *”. Further, the hSTING inhibitory activity entry on human STING (hSTING) is listed as “* * *”.

In the case of `COCC#Cc1ccc2[nH]c(Nc3c[nH]c4ccc(Cl)nc34)nc2c1` [Embodiment 145, N-(5-Chloro-1H-pyrrolo[3,2-b]pyridin-3-yl)-5(3-methoxyprop-1-yn-1-yl)-1H-benzo[d]imidazole-2-amine], the IC50 in test [1] was in the range of 100 to 1000 nM. Also, the hSTING inhibitory activity result at human STING (hSTING) is listed as “* *”.

For `CCCCn1c(Nc2c[nH]c3ccc(Br)nc23)nc2ccc(Oc3ccccc3)cc21` [Embodiment 91, N-(5-bromo-1H-pyrrolo[3,2-b]pyridin-3-yl)-1-butyl-6-phenoxy-1H-benzo[d]imidazol-2-amine], the IC50 in test [1] was in the range of 100 to 1000 nM. In addition, the hSTING inhibitory activity entry on human STING (hSTING) is “* * *”.

For the compound `C#CCn1c(Nc2c[nH]c3ccc(Cl)cc23)nc2cc(C(F)(F)F)ccc21` [Embodiment 214, N-(5-Chloro-1H-indol-3-yl)-1-(pro-2-yl)-5-(trifluoromethyl)-1H-benzo[d]imidazol-2-amine], the IFN-β bioinhibitory activity result in test [1] is listed as “* * *”. Moreover, the hSTING inhibitory activity result on human STING (hSTING) is recorded as “* * *”.

With `CN(C)n1c(Nc2c[nH]c3ccc(Cl)cc23)nc2cc(OC(F)(F)F)ccc21` [Embodiment 258, N2-(5-Chloro-1H-indol-3-yl)-N1, N1-dimethyl-5-(trifluoromethoxy)-1H-benzo[d]imidazole-1,2-diamine], the IFN-β bioinhibitory activity result in test [1] is “* *”. Besides, the hSTING inhibitory activity entry on human STING (hSTING) is reported as “* * *”.

`Cn1c(Nc2c[nH]c3ccc(Cl)cc23)nc2cc(C(F)(F)F)cc(F)c21` [Embodiment 225, N-(5-Chloro-1H-indol-3-yl)-7-fluoro-1-methyl-5-(trifluoromethyl)-1H-benzo[d]imidazol-2-amine]: the IFN-β bioinhibitory activity entry in test [1] was “* *”. Besides, the hSTING inhibitory activity entry at human STING (hSTING) was “* * *”.

On to `Cn1c(Nc2c[nH]c3ccc(C#N)cc23)nc2cc(C(F)(F)F)cc(F)c21` [Embodiment 257, 3-{ [7-fluoro-1-methyl-5-(trifluoro methyl)-1H-benzo[d]imidazol-2-yl]amino}-1H-indole-5-carbonitrile], for which the IFN-β bioinhibitory activity result in test [1] is given as “* *”. Moreover, on human STING (hSTING), the hSTING inhibitory activity result is “* * *”.

Regarding `Clc1cc(Cl)c2nc(Nc3c[nH]c4ccc(Cl)nc34)[nH]c2c1` [Embodiment 84, 4,6-dichloro-N-(5-chloro-1H-pyrrolo[3,2-b]pyridin-3-yl)-1H-benzo[d]imidazol-2-amine], in test [1], the IC50 is at least 1000 nM. Moreover, the hSTING inhibitory activity result on human STING (hSTING) is listed as “* *”.

As for `Clc1ccc2[nH]cc(Nc3nc4cc(Br)ccc4[nH]3)c2n1` [Embodiment 95, 5-bromo-N-(5-chloro-1H-pyrrolo [3,2-b]pyridin-3-yl)-1H-benzo [d]imidazol-2-amine formate], the IFN-β bioinhibitory activity result in test [1] was “* * *”. Also, the hSTING inhibitory activity entry on human STING (hSTING) is “* *”.

Turning to `FC(F)(F)Oc1ccc2c(c1)nc(Nc1c[nH]c3ccc(Cl)cc13)n2C1CC1` [Embodiment 231, N-(5-Chloro-1H-indol-3-yl)-1-cyclopropyl-5-(trifluoromethoxy)-1H-benzo[d]imidazol-2-amine], the IFN-β bioinhibitory activity entry in test [1] is reported as “* *”. Further, at human STING (hSTING), the hSTING inhibitory activity result is “* * *”.

For the compound `CNn1c(Nc2c[nH]c3ccc(Cl)cc23)nc2cc(C(F)(F)F)ccc21.Cl` [Embodiment 255, N2-(5-Chloro-1H-indol-3-yl)-N1-methyl-5-(trifluoromethyl)-1H-benzo[d]imidazole-1,2-diamine hydrochloride], in test [1], the IFN-β bioinhibitory activity result is given as “* *”. Besides, the hSTING inhibitory activity result at human STING (hSTING) was “* * *”.

`COCCn1c(Nc2c[nH]c3ccc(Cl)nc23)nc2cc(C(F)(F)F)ccc21` [Embodiment 178, N-(5-chloro-1H-pyrrolo[3,2-b]pyridin-3-yl)-1-(2-methoxyethyl)-5-(trifluoromethyl)-1H-benzo[d]imidazol-2-amine]: the results for the IC50 (in test [1]; at human STING (hSTING) (read-out: hSTING inhibitory activity)) were at least 1000 nM and at least 10 µM, respectively.

With `Clc1ccc2[nH]cc(Nc3nc4cc(OC5CCCCC5)ccc4[nH]3)c2n1` [Embodiment 120, N-(5-Chloro-1H-pyrrolo[3,2-b]pyridin-3-yl)-5-(cyclohexyloxy)-1H-benzo[d]imidazol-2-amine formate], the IC50 in test [1] lay within 100 to 1000 nM. Moreover, the hSTING inhibitory activity result on human STING (hSTING) was “* * *”.

With `Cn1c(Nc2c[nH]c3ccc(Cl)nc23)nc2ccc(Oc3ccccc3)cc21` [Embodiment 44, N-(5-chloro-1H-pyrrolo[3,2-b]pyridin-3-yl)-1-methyl-6-phenoxy-1H-benzo[d]imidazol-2-amine], in test [1], the IC50 was 100 to 1000 nM. The hSTING inhibitory activity entry at human STING (hSTING) was “* *”.

As for `CCCn1c(Nc2c[nH]c3ccc(Cl)cc23)nc2cc(C(F)(F)F)ccc21` [Embodiment 212, N-(5-Chloro-1H-indol-3-yl)-1-propyl-5-(trifluoromethyl)-1H-benzo[d]imidazo-2-amine], the IFN-β bioinhibitory activity result in test [1] is given as “* * *”. Further, the hSTING inhibitory activity entry at human STING (hSTING) is on record as “* * *”.

As to `C#Cc1ccc2[nH]cc(Nc3nc4cc(Oc5ccccc5)ccc4[nH]3)c2n1` [Embodiment 111, N-(5-ethynyl-1H-pyrrolo[3,2-b]pyridin-3-yl)-5-phenoxy-1H-benzo[d]imidazol-2-amine formate], the IFN-β bioinhibitory activity result in test [1] is “* *”. In addition, the hSTING inhibitory activity result at human STING (hSTING) is “* * *”.

For `Fc1cc2nc(Nc3c[nH]c4ccc(Cl)nc34)[nH]c2cc1F` [Embodiment 78, N-(5-Chloro-1H-pyrrolo[3,2-b]pyridin-3-yl)-5,6-difluoro-1H-benzo[d]imidazol-2-amine], the IC50 in test [1] was at least 1000 nM. Further, the hSTING inhibitory activity result at human STING (hSTING) was “* *”.

Consider `Brc1ccc2[nH]cc(Nc3nc4cc(I)ccc4[nH]3)c2n1` [Embodiment 80, N-(5-bromo-1H-pyrrolo[3,2-b]pyridin-3-yl)-5-iodo-1H-benzo [d]imidazol-2-amine], for which, in test [1], the IFN-β bioinhibitory activity result is on record as “* * *”. In addition, the hSTING inhibitory activity result on human STING (hSTING) was “* * *”.

Values taken from patent US20240279205A1, “NOVEL BENZIMIDAZOLE DERIVATIVE” (Carna Biosciences, Inc., priority 2020, published 2024).
